From PMC2362735, “New semisynthetic vinca alkaloids: chemical, biochemical and cellular studies” (British Journal of Cancer, 1999)
pIC50: −log10 of the molar value.

Columns and labels:
tubulin = experiment: Taxol-induced tubulin polymerization, turbidity at 350 nm; format: biochemical, calf; details: taxol-induced assembly, MES buffer pH 6.8, 37C; average of three independent measurements; read-out: Anti-tubulin effect, turbidity at 350 nm, IC50
From the text: The numerous antimitotic drugs already developed and therapeu- tically used for a large number of pathologies belong to different classes based on their chemical structure and other distinctive features. Antimitotic drugs usually target the tubulin/microtubule network of the cytoskeleton that is formed by assembly of cyto- plasmic tubulin dimers. The stability of the different microtubular structures varies considerably; some of their functions depend on their lability. The lability is augmented by the extreme sensitivity to various drugs. Several synthetic and natural compounds interact specifically with tubulin and/or microtubule, fundamentally destroying its dynamic character and leading to cell death. […] Because of their extensive clinical use, it is important to synthesize additional agents having at least the same biological activity. […] Nevertheless, it is unclear yet how the anti-calmodulin activity of these drugs is related to their desired and undesired pharmacological effects. […] The synthesis of the KAR derivatives are presented. […] Taxol, GTP and trifluoperazine were purchased from Sigma. All organic reagents for synthesis of the new compounds were obtained from Aldrich and were of the highest grade. All other chemicals were reagent grade commercial preparations. […] Tubulin was stored in 1 M sucrose, 10 mM sodium phosphate buffer, 0.5 mM magnesium chloride and 0.1 mM GTP, pH 7.0, at -80C and dialysed against the appropriate buffer before use. […] PFK, aldolase and glycerol-3-phosphate dehydrogenase- triosephosphate isomerase purified from rabbit skeletal muscle were purchased in ammonium sulphate suspensions from Sigma or Boehringer. The enzyme suspensions were centrifuged at 10 000g for 5 min. The pellets were suspended in the appropriate buffer, then the enzymes were gel filtered or dialysed in the same buffer to remove ammonium sulphate. […] (Figure 1B; R1 , CH3; R2 , CH2 CH2 Cl). […] After 2 h incubation at room temperature, 200 ml dried toluene was added to the reaction mixture. […] The mixture was stirred for 30 min. After separation of the organic phase, it was washed with water (3 x 30 ml) and dried with potassium sulphate and evaporated on a water bath of 35-40C at 20-27 hPa. The resulting material was chromatographed on silica gel (500 g, bead size of 0.040- 0.063 mm) column (30 mm x 500 mm) using ethyl acetate/ethanol (9:1) mixture as eluent. […] The mixture was kept for 4 h at room temperature and then evaporated on a water bath at 40C under a vacuum of 80 hPa to a final volume of 5-6 ml. […] (Figure 1B, R1 , CHO; R2 , CH2 CH2 Cl). […] Synthesis of KAR-4 [3-allyl-2,4-dioxo-3,5-spiro-oxazolidino- 4-deacetoxy-vinblastine] (Figure 1B; R1 , CH3; R2 , CH2 CH=CH2 ). […] NMR measurements were carried out on a Varian Unity plus-500 instrument (500 MHz for 1H and 125 MHz for 13C) in DMSO. Chemical shifts were determined relative to dTMS = 0.00 p.p.m. 1H and 13C signal assignments were verified by a concerted use of two-dimensional 1H-1H and 1H-13C shift correlation methods (DQFCOSY, HSQC, HMBC) and NOESY experiments. The gradient-enhanced DQFCOSY, HSQC, HMBC and NOESY experiments were recorded by using the standard spectrometer software package. A mixing time of tmix = 0.5 s was used for the NOESY experiments.

[1] = test system: tubulin/microtubule, PFK-bundled microtubules; experiment: Tubulin polymerization with or without PFK (bundled vs single microtubules): turbidity and pelleting with SDS-PAGE; format: biochemical, calf; details: 10 M tubulin, 2 M drug
From the text: The numerous antimitotic drugs already developed and therapeu- tically used for a large number of pathologies belong to different classes based on their chemical structure and other distinctive features. Antimitotic drugs usually target the tubulin/microtubule network of the cytoskeleton that is formed by assembly of cyto- plasmic tubulin dimers. The stability of the different microtubular structures varies considerably; some of their functions depend on their lability. The lability is augmented by the extreme sensitivity to various drugs. Several synthetic and natural compounds interact specifically with tubulin and/or microtubule, fundamentally destroying its dynamic character and leading to cell death. […] Because of their extensive clinical use, it is important to synthesize additional agents having at least the same biological activity. […] Nevertheless, it is unclear yet how the anti-calmodulin activity of these drugs is related to their desired and undesired pharmacological effects. […] The synthesis of the KAR derivatives are presented. […] Taxol, GTP and trifluoperazine were purchased from Sigma. All organic reagents for synthesis of the new compounds were obtained from Aldrich and were of the highest grade. All other chemicals were reagent grade commercial preparations. […] Tubulin was stored in 1 M sucrose, 10 mM sodium phosphate buffer, 0.5 mM magnesium chloride and 0.1 mM GTP, pH 7.0, at -80C and dialysed against the appropriate buffer before use. […] PFK, aldolase and glycerol-3-phosphate dehydrogenase- triosephosphate isomerase purified from rabbit skeletal muscle were purchased in ammonium sulphate suspensions from Sigma or Boehringer. The enzyme suspensions were centrifuged at 10 000g for 5 min. The pellets were suspended in the appropriate buffer, then the enzymes were gel filtered or dialysed in the same buffer to remove ammonium sulphate. […] (Figure 1B; R1 , CH3; R2 , CH2 CH2 Cl). […] After 2 h incubation at room temperature, 200 ml dried toluene was added to the reaction mixture. […] The mixture was stirred for 30 min. After separation of the organic phase, it was washed with water (3 x 30 ml) and dried with potassium sulphate and evaporated on a water bath of 35-40C at 20-27 hPa. The resulting material was chromatographed on silica gel (500 g, bead size of 0.040- 0.063 mm) column (30 mm x 500 mm) using ethyl acetate/ethanol (9:1) mixture as eluent. […] The mixture was kept for 4 h at room temperature and then evaporated on a water bath at 40C under a vacuum of 80 hPa to a final volume of 5-6 ml. […] (Figure 1B, R1 , CHO; R2 , CH2 CH2 Cl). […] Synthesis of KAR-4 [3-allyl-2,4-dioxo-3,5-spiro-oxazolidino- 4-deacetoxy-vinblastine] (Figure 1B; R1 , CH3; R2 , CH2 CH=CH2 ). […] NMR measurements were carried out on a Varian Unity plus-500 instrument (500 MHz for 1H and 125 MHz for 13C) in DMSO. Chemical shifts were determined relative to dTMS = 0.00 p.p.m. 1H and 13C signal assignments were verified by a concerted use of two-dimensional 1H-1H and 1H-13C shift correlation methods (DQFCOSY, HSQC, HMBC) and NOESY experiments. The gradient-enhanced DQFCOSY, HSQC, HMBC and NOESY experiments were recorded by using the standard spectrometer software package. A mixing time of tmix = 0.5 s was used for the NOESY experiments. […] Mass spectrum was recorded on a Kratos MS 80 instrument using FAB.

CC[C@]1(O)C[C@@H]2CN(CCc3c([nH]c4ccccc34)[C@@](C(=O)OC)(c3cc4c(cc3OC)N(C)[C@@H]3[C@]45CCN4CC=C[C@@](CC)(C[C@@]36OC(=O)N(CCCl)C6=O)[C@H]45)C2)C1 [KAR-2, 3′-(β-chloroethyl)-2′,4′-dioxo-3,5′-spiro-oxazolidino-4-deacetoxy-vinblastine]
pIC50 (tubulin): 6.70
tubulin partition in pelleting experiment, without PFK ([1]; 20 µM taxol, no PFK, SDS-PAGE of supernatant and pellet): practically all tubulin appears in the super- natants
tubulin partition in pelleting experiment, with PFK (bundled microtubules) ([1]; 2 M PFK, 20 µM taxol, SDS-PAGE of supernatant and pellet): virtually no depolymer- izing effect
tubulin assembly by turbidity in the presence of PFK ([1]; 2 M PFK, turbidity at 350 nm): PFK can overcome the inhibitory effect of KAR-2 on tubulin polymerization
